This is an account of results in patent US5830863A, “Neurokinin A antagonists” (priority 1996, dated 1998).

In one test the target is T1, NKA receptor (Mesocricetus auratus, UniProt P51144).
T1 construct: displace I125 labeled NKA from hamster urinary bladder; from tissue; host or cells: hamster urinary bladder (membranes in A1, chopped tissue in A4)
T1 sequence (P51144 1-384): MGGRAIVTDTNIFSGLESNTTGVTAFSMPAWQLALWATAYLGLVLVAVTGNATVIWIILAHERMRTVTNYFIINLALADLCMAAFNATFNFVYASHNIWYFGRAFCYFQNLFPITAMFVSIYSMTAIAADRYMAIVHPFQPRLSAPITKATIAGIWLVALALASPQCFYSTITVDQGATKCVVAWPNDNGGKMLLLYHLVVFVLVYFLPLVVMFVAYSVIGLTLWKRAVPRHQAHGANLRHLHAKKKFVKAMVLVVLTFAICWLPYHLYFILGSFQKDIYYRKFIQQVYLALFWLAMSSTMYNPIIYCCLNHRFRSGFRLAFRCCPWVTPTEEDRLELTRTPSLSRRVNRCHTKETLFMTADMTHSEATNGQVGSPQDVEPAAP
Briefly: phosphatidylinositol (PI) turnover in hamster urinary bladder. In kind it is cell-based. The note with it: test compound alone; ID#3 up to 100 μM. How it is done:
The abscissa (x-axis) logarithmically indicates the concentration in nanomolar (nM) of agonist or antagonist of the NKA receptor. The ordinate (y-axis) indicates the observed PI turnover as a percentage of control. […] The ordinate (y-axis) indicates the observed PI turnover as a percentage of control. […] Urinary bladders from several hamsters were pooled and chopped at 350 μm with a tissue chopper. The chopped tissue was then incubated in 37° C. Krebs-Hepes buffer with fresh buffer changes every 15 minutes for 30 minutes. The tissue was then incubated in this buffer containing 100-200 μCi of ^3 H-inositol at 37° C. […] Test compound was also evaluated alone at the indicated concentrations to test for agonist activity. […] 50 μl of the bottom phase (chloroform) was withdrawn from each tube and placed in a counting vial, dried, and counted in scintillation fluid. The material on the columns was washed in order with: 1) 10 ml of water 2) 5 ml of 5 mM disodium tetraborate/60 mM sodium formate 3) 10 ml of 1M ammonium formate in 0.1M formic acid The final (third) wash was collected and one ml was mixed with 6 ml of ACS scintillant and counted. The ratio of these counts (total inositol phosphates) to the corresponding organic phase counts was then calculated for each sample. […]

Test [1] concerns the target T2, neurokinin A (NKA) receptor (NK-2) (Mesocricetus auratus, UniProt P51144).
T2 construct: displace I125 labeled NKA from hamster urinary bladder; from tissue; host or cells: hamster urinary bladder (membranes in A1, chopped tissue in A4)
T2 sequence (P51144 1-384): T1 sequence (P51144 1-384)
Briefly: displacement of I125 labeled NKA from hamster urinary bladder membranes. In kind it is binding. The text has this:
The abscissa (x-axis) logarithmically indicates the concentration in nanomoles of agonist of antagonist of the neurokinin A (NKA) receptor. The ordinate (Y-axis) indicates the observed specific binding for each tested agonist or antagonist measured as a percentage of maximum specific binding.
Agonists tested were NKA and fragments of NKA consisting of the third to tenth (NKA(3-10)) amino acids and the fourth to tenth (NKA(4-10)) amino acids. Values are MEAN±S.E.M. of 6-12 experiments. IC50 values estimated graphically from 50% inhibition point.
Urinary bladders from several hamsters were pooled, minced, and homogenized in 50 mM TRIS-HCl (pH 7.4) containing 120 mM NaCl and 5 mM KCl at 4° C. and centrifuged at 48,000×g for 15 minutes. The pellet was resuspended for 30 minutes in 50 mM TRIS-HCl (pH 7.4) containing 10 mM EDTA and 300 mM KCl at 4° C. The suspension was centrifuged as above and the pellet was washed two times in plain 50 mM TRIS-HCl (pH 7.4) and centrifuged similarly. The tissue was then resuspended in incubation buffer and an aliquot (approximately 3-5 mg tissue) was added to each assay tube to commence the assay. The assay tubes contained incubation buffer consisting of 50 mM TRIS-HCl (pH 7.4), 0.02% BSA, 40 μg/ml bacitracin, 4 μg/ml chymostatin, 4 μg/ml leupeptin, 2 mM MnCl2, 0.1 nM ^125 iodohistidyl^1 -neurokinin A (Amersham Corp.), and concentrations of the title compounds or standards ranging from 0.03 nM to 100 μM. The assay was allowed to proceed to equilibrium for 120 min at room temperature. After this time, the contents of each tube was rapidly filtered over Whatman GF/B filters presoaked in 0.5% BSA and the filters were rapidly washed two times with ice-cold plain 50 mM TRIS-HCl (pH 7.4). Filter-bound radioactivity was quantitated in a gamma counter. Specific binding (maximum) was defined as the difference between binding in the presence and absence of 1 μM unlabeled neurokinin A. Competition of iodinated neurokinin A binding by test compounds or standards was expressed as a percentage of this maximum competition.
Values given indicate the concentration in nanomoles of antagonist to reach the IC50 of the neurokinin A (NKA) receptor. SKLKB82#3 represents a cloned NK-2 receptor cell line; the sample is prepared from the scraped cell pellet for assay as earlier described for the hamster urinary bladder preparations. NK-1 represents a substance P receptor preparation from rat salivary gland; receptors are prepared as earlier described for the hamster urinary bladder preparations. Blank spaces indicate compound has not been tested in that particular assay.

Residues, ends and D or L forms follow the SMILES beside them.

By IC50 is commonly meant the concentration needed to halve the response being measured. High values mean a need for much substance, low ones inhibition by little substance. Consider `CC(C)C[C@@H](CN[C@@H](CC(C)C)C(N)=O)NC(=O)CNC(=O)[C@@H](NC(=O)[C@H](Cc1ccccc1)NC(=O)[C@H](CO)NC(=O)[C@@H](N)CC(=O)O)C(C)C` [MDL 28,564, H-Asp-Ser-Phe-Val-Gly-Leu.PSI.(CH2 NH)Leu-NH2] (HELM PEPTIDE1{D.S.F.V.G.[CC(C)C[C@@H](CN[C@@H](CC(C)C)C(N)=O)N[*:1]]}$$$$V2.0), for which the “partial agonist activity (PI turnover)” value at NKA receptor came to 12%. Besides, the 50% inhibitory concentration (IC50) in test [1] stood at 157 ± 17 nM.
On the same counts, the results for `CC(C)C[C@@H](CN(C)[C@@H](CC(C)C)C(N)=O)NC(=O)CNC(=O)[C@@H](NC(=O)[C@H](Cc1ccccc1)NC(=O)[C@H](CO)NC(=O)[C@@H](N)CC(=O)O)C(C)C` [MDL 29,916, H-Asp-Ser-Phe-Val-Gly-Leu.PSI.(CH2 NCH3)Leu-NH2] (HELM PEPTIDE1{D.S.F.V.G.[CC(C)C[C@@H](CN(C)[C@@H](CC(C)C)C(N)=O)N[*:1]]}$$$$V2.0) are 5% and 210 ± 15 nM.
